Measurements: patent publication US4904658A, “Substituted-6H,8H-pyrimido-[1,2,3-cd]purine-8,10-(9H)-diones and substituted-6H,10H-pyrimido[1,2-cd]purin-10-ones” (American Cyanamid Company, priority 1988, dated 1990)

Columns and labels:
[1] = Passive Avoidance Anoxic Induced Amnesia Test in mice; format: in vivo, Swiss-Webster mice; conditions: vs saline control, 30% considered active
Description: Another in vivo test associated with decreased neural function in mammals is the Passive Avoidance Anoxic Induced Amnesia Test. This test is used to determine the attenuation of anoxic induced amnesia in mice treated with drug, as compared to saline treated control animals with no drug.
A shock-motivated, single trial, step-through passive avoidance procedure is used. Groups of 25 Swiss-Webster, middle-aged mice (9 months of age) are placed singly in the front chamber of a 2-chamber box and are allowed to voluntarily cross into the rear chamber. As soon as the mouse enters the rear chamber, a door automatically traps the animal and a mild electric shock (0.4 mA for 4 seconds) is delivered to its feet. Following the foot shock, the mice are initially placed in an anoxic environment (0% oxygen) for 12 seconds, which quickly induces unconsciousness. They are then placed in an hypoxic environment (15% oxygen) for four minutes which prolongs the oxygen deprived state, maintaining unconsciousness. All testing is performed 24 hours later, and in all cases the mice appear fully recovered from the previous anoxic/hypoxic treatment. All test compounds are administered intraperitoneally at a dose of 10-200 mg/kg, 30 minutes prior to training and testing. Control animals are injected intraperitoneally only with saline at 0.01 cc/g of body weight.
The latency to enter the rear chamber is recorded for both training and testing. Presumably, the more the animal remembers being shocked, the greater it will inhibit going into the rear chamber and the higher will be its latency to re-enter. An improvement of 30% over saline control scores is considered active.

[2] = test system: brain-specific receptors of rats (3H-benzodiazepine binding); assay: Inhibition of the binding of 3H-benzodiazepine to brain-specific receptors of rats; design: species or system rat (Wistar strain); conditions: rat cortex P2 fraction; 3H-diazepam 1.5 nM or 3H-flunitrazepam 1.0 nM; test concentration not given; 12% or more is active
Description: A test utilized for the determination of anxiolytic activity is the measurement of the ability of test compounds to inhibit the binding of tritiated benzodiazepines to brain-specific receptors of warm-blooded animals. A modification of the method described by R. F. Squires, et al., Nature, 266, No. 21, pg 732 (Apr. 1977) and H. Mohler, et al., Science, 198, pg 849 (1977) was employed.
Male albino rats (Wistar strain, weighing 150-200 g each) were used. The test compounds were solubilized in either dimethylformamide, acetic acid, ethanol or hydrochloric acid.
Whole cortex of rats was homogenized gently in 20 volumes of ice-cold 0.32 M sucrose, centrifuged twice at 1000 g for 10 minutes and then recentrifuged at 30,000 g for 20 minutes to produce a crude P2 -synaptosomal fraction. The P2 -fraction was either: (1) resuspended in twice the original volume in hypotonic 50 mM Tris.HCl (pH 7.4), or (2) resuspended in one-half the original volume in hypotonic 10 mM Tris.HCl (pH 7.4) and frozen (-20° C.) until time of use. Frozen P2 preparations were thawed and resuspended in four times the original homogenizing volume at time of assay.
The binding assay consisted of 300 μl of the P2 -fraction suspension (0.2-0.4 mg protein), 100 μl of test drug and 100 μl of ^3 H-diazepam (1.5 nM, final concentration) or ^3 H-flunitrazepam (1.0 nM, final concentration) which was added to 1.5 ml of 50 mM Tris.HCl (pH 7.4). Non-specific binding controls and total binding controls received 100 μl of diazepam (3 μM final concentration) and 100 μl of deionized water, respectively, in place of the test compound. Incubation for 30 minutes proceeded in ice and was terminated by filtration, under vacuum, through glass fiber filters. […] After drying at 50°-60° C. for 30 minutes, 10 ml of diluent was added and the radioactivity determined in a scintillation counter.
Inhibition of binding was calculated by the difference between total binding and binding in the presence of test compound, divided by the total binding, X 100. […]

[3] = Reduction of mean arterial blood pressure in spontaneously hypertensive rats; format: in vivo, spontaneously hypertensive rats of the Okamoto strain; conditions: gavage, 100 mg/kg or less, two doses 24 h apart, measured at 28 hours; average mean arterial blood pressure of the rats 160 mm Hg
Procedure: Certain of the novel compounds of the present invention are active hypotensive agents at non-toxic doses when administered to mammals. These compounds were tested for hypotensive activity by the method of P. S. Chan and D. Poorvin, Clinical and Experimental Hypertension, 1 (6), 817-830 (1979). Male, 16 week old, spontaneously hypertensive rats of the Okamoto strain having an average mean arterial blood pressure of 160+1.5 mm of mercury are used in the test. One to 3 rats are used per test compound. A rat is dosed by gavage with a test compound, suspended in 2% pre-boiled starch at a concentration of 50 mg/ml, at a dose of 100 mg/kg of body weight or less, with 0.9% sodium chloride loading at a dose of 25 ml/kg of body weight. A second identical dose of the test compound, without sodium chloride loading is given 24 hours later. At 28 hours after the initial dose the mean arterial blood pressure is measured by the method of Chan and Poorvin vide supra. The procedure is repeated in a second and third rat when necessary.

[4] = Hypoxic Survival Test in mice; format: in vivo, Royal Hart mice; conditions: survival after 5 minutes; for % Survivors: 30 min before hypoxia
Procedure: A useful in vivo test that measures how effectively central nervous system-acting drugs enhance survival in a hypoxic environment, presumably by improving the ratio of energy supply to demand is known as the Hypoxic Survival Test. […] Drugs are tested by intraperitoneally injecting groups of mice 30 minutes prior to placing them in a hypoxic mixture and measuring survival. The rationale of this test is that drugs which enhance survival under hypoxic conditions without concomitant, depression or sedative side effects, may do so by enhancing energy metabolism, or by preserving normal brain function under conditions of reduced energy metabolism. Given the dependence of the brain on a constant supply of energy, drugs which have this property may have many far-reaching therapeutic indications, including recovery from stroke and closed head injury, as well as reducing the deleterious effects of the aging central nervous system.
Groups of 20 Royal Hart mice (6 weeks of age) are injected intraperitoneally with test compound (1-200 mg/kg) 30 minutes prior to placing them in a hypoxic mixture (10% oxygen in 90% […]) and measuring survival after 5 minutes.
A separate group of 20 mice is injected intraperitoneally with saline solution (0.01 cc/g of body weight) and processed as described above.
Still another group of 20 mice is injected intraperitoneally with 0.125 mg/kg of physostigmine and processed as described above.

For `Cn1c(=O)c2ncn3c2n(c1=O)CC=C3c1cccc(C(F)(F)F)c1` [9-Methyl-4-[3-(trifluoromethyl)phenyl]-6H,8H-pyrimido[1,2,3-cd]purine-8,10(9H)-dione], the “% Improvement” value ([1]; 10 mg/kg i.p.) was 66%, the “% Improvement” value ([1]; 25 mg/kg i.p.) was 69% and the “% Improvement” value ([1]; 50 mg/kg i.p.) was 56%. For the same compound, the “% Improvement” value ([1]; 100 mg/kg i.p.) was 39%.

In the case of `O=c1[nH]c(=O)n2c3c1ncn3C(c1cccc(C(F)(F)F)c1)=CC2` [4-[3-(Trifluoromethyl)phenyl]-6H,8H-pyrimido[1,2,3-cd]purine-8,10(9H)-dione], the “% Improvement” value ([1]; 50 mg/kg i.p.) is reported as 144%, the “% Improvement” value ([1]; 100 mg/kg i.p.) is reported as 44% and the “% Inhibition of the binding of 3H-benzodiazepine” value (“% Inhibition” below) [2] is reported as 54%.

In the case of `O=c1c2ncn3c2n(c(=O)n1Cc1ccccc1)CC=C3c1cccc(C(F)(F)F)c1` [9-(Phenylmethyl)-4-[3-(trifluoromethyl)phenyl]-6H,8H-pyrimido[1,2,3-cd]purine-8,10(9H)-dione], the “Mean arterial blood pressure” value [3] is reported as 132 mm Hg.

With `CCn1c(=O)c2ncn3c2n(c1=O)CC=C3c1cccc(C(F)(F)F)c1` [9-Ethyl-4-[3-(trifluoromethyl)phenyl]-6H,8H-pyrimido[1,2,3-cd]purine-8,10(9H)-dione] the “% Inhibition” value [2] was 17%.

For `O=c1[nH]c(=O)n2c3c1ncn3C(c1ccc(N3CCOCC3)cc1)=CC2` [4-[4-(4-Morpholinyl)phenyl]-6H,8H-pyrimido[1,2,3-cd]purine-8,10(9H)-dione], the “% Survivors” value ([4]; 100 mg/kg i.p.) was 55% and the “% Improvement” value ([1]; 25 mg/kg i.p.) was 34%.

In the case of `O=c1[nH]c(=O)n2c3c1ncn3C(c1cccc([N+](=O)[O-])c1)=CC2` [4-(3-Nitrophenyl)-6H,8H-pyrimido[1,2,3-cd]purine-8,10(9H)-dione], the “% Survivors” value ([4]; 200 mg/kg i.p.) is reported as 47%.

With `Cc1ccc(C2=CCn3c(=O)[nH]c(=O)c4ncn2c43)cc1` [4-(4-Methylphenyl)-6H,8H-pyrimido[1,2,3-cd]purine-8,10(9H)-dione] the “Mean arterial blood pressure” value [3] was 127 mm Hg.

With `O=c1[nH]c(=O)n2c3c1ncn3C(c1cccnc1)=CC2` [4-(3-Pyridinyl)-6H,8H-pyrimido[1,2,3-cd]purine-8,10(9H)-dione] the “Mean arterial blood pressure” value [3] was 127 mm Hg.

In the case of `O=c1[nH]c(=O)n2c3c1ncn3C(c1cccc(Cl)c1)=CC2` [4-(3-Chlorophenyl)-6H,8H-pyrimido[1,2,3-cd]purine-8,10(9H)-dione], the “% Improvement” value ([1]; 25 mg/kg i.p.) is reported as 42% and the “% Improvement” value ([1]; 50 mg/kg i.p.) is reported as 43%.

In the case of `CSc1nc(=O)c2ncn3c2n1CC=C3c1ccccc1` [8-(Methylthio)-4-phenyl-6H,10H-pyrimido[1,2-cd]-purin-10-one], the “% Inhibition” value [2] is reported as 13%.

In the case of `CNC(=O)Oc1ccc2c(c1)[C@]1(C)CCN(C)[C@@H]1N2C` [physostigmine, reference compound], the “physostigmine treated mice surviving” value ([4]; 10% oxygen, 0.125 mg/kg i.p., saline controls 5-20%) is reported as 60-80%.
